Assays:
[1] = target: Botulinum neurotoxin type A (Clostridium botulinum) (UniProt P0DPI0); assay: Ratio of Ki for NSC 300510 to compound Ki for clostridium botulinum Botulinum neurotoxin type A light chain by RP-HPLC analysis
[2] = target: Botulinum neurotoxin type A (Clostridium botulinum, UniProt P0DPI0); assay: Competitive inhibition of clostridium botulinum Botulinum neurotoxin type A light chain by RP-HPLC analysis
[3] = target: Botulinum neurotoxin type A (Clostridium botulinum) (UniProt P0DPI0); assay: Inhibition of clostridium botulinum Botulinum neurotoxin type A light chain at 20 uM by RP-HPLC analysis

Sequence of Botulinum neurotoxin type A (P0DPI0 2-448 limits assumed): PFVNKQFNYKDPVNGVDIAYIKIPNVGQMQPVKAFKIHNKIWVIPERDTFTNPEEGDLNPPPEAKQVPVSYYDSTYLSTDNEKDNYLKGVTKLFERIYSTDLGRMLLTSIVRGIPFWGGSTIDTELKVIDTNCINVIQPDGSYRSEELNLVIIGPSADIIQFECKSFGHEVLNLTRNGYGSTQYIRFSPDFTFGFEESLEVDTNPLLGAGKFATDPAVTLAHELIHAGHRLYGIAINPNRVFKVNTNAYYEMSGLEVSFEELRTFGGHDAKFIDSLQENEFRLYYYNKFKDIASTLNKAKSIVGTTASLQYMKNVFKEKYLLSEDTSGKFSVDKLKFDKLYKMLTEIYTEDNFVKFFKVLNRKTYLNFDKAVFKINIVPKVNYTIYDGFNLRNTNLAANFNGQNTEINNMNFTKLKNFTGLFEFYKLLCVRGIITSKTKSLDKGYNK
Sequence of Botulinum neurotoxin type A (Clostridium botulinum) (P0DPI0 2-448 limits assumed): as above

Compound | Ratio Ki [1] | Ki [2] [nM] | inhibition [3] [%]
O=C(NCCCNc1ccnc2cc(Cl)ccc12)c1cc(NC(=O)c2ccc(C(=O)Nc3cc(C(=O)NCCCNc4ccnc5cc(Cl)ccc45)cc(C4=NCCN4)c3)cc2)cc(C2=NCCN2)c1 | 15 | – | –
Clc1ccc2c(NCCCCNCc3ccc(-c4ccc(-c5ccc(CNCCCCNc6ccnc7cc(Cl)ccc67)cc5)s4)cc3)ccnc2c1 | – | 535 | –
Clc1ccc2c(NCCCCCNCc3ccc(-c4ccc(-c5ccc(CNCCCCCNc6ccnc7cc(Cl)ccc67)cc5)s4)cc3)ccnc2c1 | – | 889 | –
N=C(N)c1ccc(-c2ccc(-c3ccc(C(=N)N)cc3)s2)cc1 | – | 10900 | 78
Clc1ccc2c(NCCNCc3ccc(-c4ccc(-c5ccc(CNCCNc6ccnc7cc(Cl)ccc67)cc5)s4)cc3)ccnc2c1 | – | 882 | –
Clc1ccc2c(NCCCNCc3ccc(-c4ccc(-c5ccc(CNCCCNc6ccnc7cc(Cl)ccc67)cc5)s4)cc3)ccnc2c1 | 36 | – | –

From ChEMBL document CHEMBL2034965, “The synthesis of 2,5-bis(4-amidinophenyl)thiophene derivatives providing submicromolar-range inhibition of the botulinum neurotoxin serotype A metalloprotease” (Eur J Med Chem, 2012)
